Our source for the IC50 values is patent EP4692090A1 (Shanghai Fosun Pharmaceutical (Group) Co., Ltd., priority 2023, dated 2024).

Where two headings read alike, the source gives them in different places. A value given as a limit tells only on which side of the number the result lay.

One assay deals with LoVo cells. The experiment in a line: LoVo cell proliferation assay (CellTiter-Glo). The class given is cell-based. The note with it: Homo sapiens, LoVo, 120 h, maximum concentration 10 µM, 9 concentrations. The gist of the method:
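LoVo cells, 2,000 per well, were treated after overnight attachment with 9-point 3-fold dilutions from 10 µM for 5 days at 37 °C. Viability was read by CellTiter-Glo luminescence. Inhibition % was taken relative to DMSO control, and IC50 came from the concentration–inhibition curve.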
(In ATP-based viability assays light output follows the ATP content of the culture.)

Another assay concerns the target T1, ATR kinase (Homo sapiens, UniProt Q13535).
T1 construct: purchased Eurofins 14-953
The experiment in a line: Inhibitory effect on ATR kinase activity (Caliper mobility shift, FAM-labeled RAD17 peptide substrate). The class given is biochemical. In outline: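 Caliper mobility-shift assay with 1 nM ATR, FAM-labeled RAD17 peptide […] and 5 mM ATP in HEPES pH 7.5 with 10 mM MnCl2, run 3 h at 28 °C and stopped with EDTA. Compounds were tested in 10-point 3-fold dilutions from 1 µM. IC50 was fitted from % inhibition of substrate conversion versus blank control.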

Setting [1] is: LoVo cells, 2,000 cells per well, 5 days incubation, CellTiter-Glo, read-out: LoVo IC50.
Where [2] appears, read: 1 nM ATR kinase (Eurofins), 28°C for 3 hours, maximum concentration 1 µM, 10 concentrations, read-out: ATR kinase IC50.
Where [3] appears, read: read-out: LoVo IC50 (nM), LoVo cells, 2,000 cells per well, 5 days incubation, CellTiter-Glo.
Setting [4] is: read-out: ATR kinase IC50, 1 nM ATR kinase (Eurofins), 28°C for 3 hours, maximum concentration 1 µM, 10 concentrations.

T1 sequence (Q13535 whole entry): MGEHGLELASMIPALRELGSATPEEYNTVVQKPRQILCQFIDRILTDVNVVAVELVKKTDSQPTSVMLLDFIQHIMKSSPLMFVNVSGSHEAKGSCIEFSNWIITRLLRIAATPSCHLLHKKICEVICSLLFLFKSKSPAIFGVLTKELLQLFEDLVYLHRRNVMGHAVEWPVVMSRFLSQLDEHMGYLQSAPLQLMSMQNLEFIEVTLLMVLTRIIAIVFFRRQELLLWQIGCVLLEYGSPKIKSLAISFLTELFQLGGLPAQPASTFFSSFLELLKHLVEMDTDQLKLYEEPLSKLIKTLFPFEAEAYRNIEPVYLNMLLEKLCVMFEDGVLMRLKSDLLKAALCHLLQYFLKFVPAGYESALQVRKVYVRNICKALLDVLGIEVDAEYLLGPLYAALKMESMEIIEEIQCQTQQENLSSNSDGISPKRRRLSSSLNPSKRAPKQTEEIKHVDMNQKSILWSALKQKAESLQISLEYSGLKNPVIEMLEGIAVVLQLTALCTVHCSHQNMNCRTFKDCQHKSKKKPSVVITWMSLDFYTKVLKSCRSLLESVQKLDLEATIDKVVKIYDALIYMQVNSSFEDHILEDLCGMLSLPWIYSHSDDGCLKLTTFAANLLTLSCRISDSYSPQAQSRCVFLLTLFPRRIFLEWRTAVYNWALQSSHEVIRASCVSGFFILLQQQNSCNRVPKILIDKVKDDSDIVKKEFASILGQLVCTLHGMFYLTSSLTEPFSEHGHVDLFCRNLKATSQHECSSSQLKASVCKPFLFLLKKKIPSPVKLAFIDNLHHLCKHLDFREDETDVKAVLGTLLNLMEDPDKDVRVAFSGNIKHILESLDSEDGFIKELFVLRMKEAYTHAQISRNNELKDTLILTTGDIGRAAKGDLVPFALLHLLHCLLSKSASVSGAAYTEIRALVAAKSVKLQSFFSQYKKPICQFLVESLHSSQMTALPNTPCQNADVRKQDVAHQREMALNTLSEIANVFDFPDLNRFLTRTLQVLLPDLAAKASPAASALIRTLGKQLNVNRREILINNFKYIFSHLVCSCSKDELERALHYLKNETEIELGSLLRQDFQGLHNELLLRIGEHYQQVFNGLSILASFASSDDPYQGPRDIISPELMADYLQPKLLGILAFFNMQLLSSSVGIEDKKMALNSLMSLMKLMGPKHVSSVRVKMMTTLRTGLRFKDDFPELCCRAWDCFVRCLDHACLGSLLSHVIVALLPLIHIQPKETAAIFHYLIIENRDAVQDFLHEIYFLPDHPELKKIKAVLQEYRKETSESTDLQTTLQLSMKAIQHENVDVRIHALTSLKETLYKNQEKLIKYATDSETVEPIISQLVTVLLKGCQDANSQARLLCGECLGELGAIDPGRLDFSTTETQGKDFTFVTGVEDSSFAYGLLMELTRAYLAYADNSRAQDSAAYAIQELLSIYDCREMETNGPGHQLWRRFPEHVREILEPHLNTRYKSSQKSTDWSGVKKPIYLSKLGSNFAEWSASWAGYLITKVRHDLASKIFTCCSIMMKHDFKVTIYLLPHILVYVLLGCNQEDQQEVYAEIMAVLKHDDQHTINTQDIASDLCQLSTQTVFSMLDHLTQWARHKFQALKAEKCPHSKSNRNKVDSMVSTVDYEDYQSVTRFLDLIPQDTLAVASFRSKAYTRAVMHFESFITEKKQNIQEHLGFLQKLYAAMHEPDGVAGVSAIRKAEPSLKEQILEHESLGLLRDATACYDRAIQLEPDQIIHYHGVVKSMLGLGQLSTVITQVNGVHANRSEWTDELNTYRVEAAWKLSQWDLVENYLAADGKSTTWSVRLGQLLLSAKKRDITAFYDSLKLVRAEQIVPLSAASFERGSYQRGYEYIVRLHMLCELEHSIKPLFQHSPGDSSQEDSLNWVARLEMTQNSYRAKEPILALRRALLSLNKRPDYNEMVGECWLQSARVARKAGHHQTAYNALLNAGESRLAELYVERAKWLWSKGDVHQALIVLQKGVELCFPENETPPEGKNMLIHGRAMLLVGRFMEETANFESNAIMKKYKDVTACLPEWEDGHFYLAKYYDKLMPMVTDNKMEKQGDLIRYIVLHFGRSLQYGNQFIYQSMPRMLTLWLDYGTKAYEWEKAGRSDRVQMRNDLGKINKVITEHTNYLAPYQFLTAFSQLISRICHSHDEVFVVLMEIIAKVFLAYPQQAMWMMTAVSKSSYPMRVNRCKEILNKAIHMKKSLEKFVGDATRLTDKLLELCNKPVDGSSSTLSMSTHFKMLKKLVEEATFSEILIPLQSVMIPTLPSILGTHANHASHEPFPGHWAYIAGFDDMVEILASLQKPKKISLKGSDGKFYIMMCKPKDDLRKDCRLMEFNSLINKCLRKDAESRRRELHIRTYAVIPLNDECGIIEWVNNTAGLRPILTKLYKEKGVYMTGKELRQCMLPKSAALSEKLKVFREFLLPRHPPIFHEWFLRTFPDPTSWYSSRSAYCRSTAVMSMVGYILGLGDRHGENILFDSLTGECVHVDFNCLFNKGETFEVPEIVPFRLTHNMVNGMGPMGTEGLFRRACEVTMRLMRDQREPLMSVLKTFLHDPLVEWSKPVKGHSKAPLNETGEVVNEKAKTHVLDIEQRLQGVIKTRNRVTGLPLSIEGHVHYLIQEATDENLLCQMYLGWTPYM
T1 sequence (Q8WXE1 whole entry partner): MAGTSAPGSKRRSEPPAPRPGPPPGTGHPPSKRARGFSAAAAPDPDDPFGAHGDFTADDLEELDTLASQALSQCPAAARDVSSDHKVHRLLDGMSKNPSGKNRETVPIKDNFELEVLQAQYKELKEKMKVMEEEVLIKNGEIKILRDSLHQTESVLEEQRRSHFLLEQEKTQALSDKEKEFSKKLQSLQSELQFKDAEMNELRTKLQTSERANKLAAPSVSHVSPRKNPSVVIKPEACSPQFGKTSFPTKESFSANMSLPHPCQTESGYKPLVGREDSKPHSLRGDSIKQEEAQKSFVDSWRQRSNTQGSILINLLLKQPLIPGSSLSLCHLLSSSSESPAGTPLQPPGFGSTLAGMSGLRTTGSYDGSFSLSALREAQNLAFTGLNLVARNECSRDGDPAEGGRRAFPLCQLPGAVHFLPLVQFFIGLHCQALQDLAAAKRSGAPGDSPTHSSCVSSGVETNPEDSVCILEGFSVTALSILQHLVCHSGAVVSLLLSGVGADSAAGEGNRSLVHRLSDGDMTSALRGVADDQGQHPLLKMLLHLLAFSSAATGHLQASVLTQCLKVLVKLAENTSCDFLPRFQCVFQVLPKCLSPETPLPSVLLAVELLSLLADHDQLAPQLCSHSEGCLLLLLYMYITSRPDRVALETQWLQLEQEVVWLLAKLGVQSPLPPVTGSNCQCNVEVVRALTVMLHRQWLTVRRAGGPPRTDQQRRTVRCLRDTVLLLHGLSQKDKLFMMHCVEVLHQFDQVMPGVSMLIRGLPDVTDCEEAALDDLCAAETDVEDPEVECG

Regarding `C#CC(C)N1CCc2nn(-c3cc[nH]n3)c3nc(N4CCOC[C@H]4C)cc(c23)C1` (stereo partly drawn) [Compound 21, (3R)-4-(7-(but-3-yn-2-yl)-2-(1H-pyrazol-3-yl)-6,7,8,9-tetrahydro-2H-1,2,3,7-tetraazabenzo[cd]azulen-4-yl)-3-methylmorpholine], the figures for the IC50 with LoVo cells (setting [1]) and at ATR kinase (setting [2]) were 100 to 1000 nM and 10 to 100 nM, respectively.
Turning to `C[C@@H]1COCCN1c1cc2c3c(nn(-c4cc[nH]n4)c3n1)CCN(S(C)(=O)=O)C2` [Compound 22, (R)-3-methyl-4-(7-(methylsulfonyl)-2-(1H-pyrazol-3-yl)-6,7,8,9-tetrahydro-2H-1,2,3,7-tetraazabenzo[cd]azulen-4-yl)morpholine], the IC50 in the assay on LoVo cells (setting [1]) was less than 100 nM; at ATR kinase (setting [2]) it was less than 10 nM.
The matching figures for `C[C@@H]1COCCN1c1cc2c3c(nn(-c4cc[nH]n4)c3n1)CCN(S(=O)(=O)C1CC1)C2` [Compound 23, (R)-4-(7-(cyclopropylsulfonyl)-2-(1H-pyrazol-3-yl)-6,7,8,9-tetrahydro-2H-1,2,3,7-tetraazabenzo[cd]azulen-4-yl)-3-methylmorpholine]: 100 to 1000 nM and less than 10 nM.
The matching figures for `CC(C)S(=O)(=O)N1CCc2nn(-c3cc[nH]n3)c3nc(N4CCOC[C@H]4C)cc(c23)C1` [Compound 24, (R)-4-(7-(isopropylsulfonyl)-2-(1H-pyrazol-3-yl)-6,7,8,9-tetrahydro-2H-1,2,3,7-tetraazabenzo[cd]azulen-4-yl)-3-methylmorpholine]: 100 to 1000 nM and less than 10 nM.
With `C[C@@H]1COCCN1c1cc2c3c(nn(-c4cc[nH]n4)c3n1)CCN(S(=O)(=O)C(F)F)C2` [Compound 27, (R)-4-(7-((difluoromethyl)sulfonyl)-2-(1H-pyrazol-3-yl)-6,7,8,9-tetrahydro-2H-1,2,3,7-tetraazabenzo[cd]azulen-4-yl)-3-methylmorpholine], the IC50 in the assay with LoVo cells (setting [1]) was 100 to 1000 nM; at ATR kinase (setting [2]), less than 10 nM.
As for `C[C@@H]1COCCN1c1cc2c3c(nn(-c4cc[nH]n4)c3n1)CCN(S(C)(=N)=O)C2` (stereo partly drawn) [Compound 28, (3R)-3-methyl-4-(7-(S-methylsulfonylimino)-2-(1H-pyrazol-3-yl)-6,7,8,9-tetrahydro-2H-1,2,3,7-tetraazabenzo[cd]azulen-4-yl)morpholine], the IC50 is more than 1000 nM in the assay with LoVo cells (setting [1]) and 10 to 100 nM at ATR kinase (setting [2]).
Regarding `CC1c2cc(N3CCOC[C@H]3C)nc3c2c(nn3-c2cc[nH]n2)CCN1S(=O)(=O)CCO` (some centres unmarked) [Compound 34], the IC50 in the assay with LoVo cells (setting [3]) was 100 to 1000 nM; at ATR kinase (setting [4]) it was less than 10 nM.
Turning to `CC(=O)N1CCc2nn(-c3cc[nH]n3)c3nc(N4CCOC[C@H]4C)cc(c23)C1C` (stereo partly drawn) [Compound 38, 1-(6-methyl-4-((R)-3-methylmorpholinyl)-2-(1H-pyrazol-3-yl)-2,6,8,9-tetrahydro-7H-1,2,3,7-tetraazabenzo[cd]azulen-7-yl)ethan-1-one], the IC50 with LoVo cells (setting [3]) was 100 to 1000 nM; on ATR kinase (setting [4]) it was less than 10 nM.
With `C=CS(=O)(=O)N1CCc2nn(-c3cc[nH]n3)c3nc(N4CCOC[C@H]4C)cc(c23)C1C` (stereo partly drawn) [Compound 50, (3R)-3-methyl-4-(6-methyl-2-(1H-pyrazol-3-yl)-7-(vinylsulfonyl)-6,7,8,9-tetrahydro-2H-1,2,3,7-tetraazabenzo[cd]azulen-4-yl)morpholine], the IC50 in the assay on LoVo cells (setting [1]) is less than 100 nM; at ATR kinase (setting [2]) it was less than 10 nM.
Take `C[C@@H]1COCCN1c1cc2c3c(n1)c(-c1cc[nH]n1)nn3CCN(C1CC(F)(F)C1)C2` [Compound 52, (R)-4-(7-(3,3-difluorocyclobutyl)-2-(1H-pyrazol-3-yl)-6,7,8,9-tetrahydro-1,3,7,9a-tetraazabenzo[cd]azulen-4-yl)-3-methylmorpholine]: the IC50 in the assay with LoVo cells (setting [1]) was more than 1000 nM; at ATR kinase (setting [2]), 10 to 100 nM.
For `C[C@@H]1COCCN1c1cc2c3c(n1)c(-c1cc[nH]n1)nn3CCN(C(=O)C1CC(F)(F)C1)C2` [Compound 53, (R)-(3,3-difluorocyclobutyl)(4-(3-methylmorpholino)-2-(1H-pyrazol-3-yl)-8,9-dihydro-1,3,7,9a-tetraazabenzo[cd]azulene-7(6H)-yl)methanone], in that order: more than 1000 nM and 10 to 100 nM.
Turning to `C[C@@H]1COCCN1c1cc2c3c(n1)c(-c1cc[nH]n1)nn3CCN(C(=O)C1CC1)C2` [Compound 54, (R)-cyclopropyl(4-(3-methylmorpholino)-2-(1H-pyrazol-3-yl)-8,9-dihydro-1,3,7,9a-tetraazabenzo[cd]azulene-7(6H)-yl)methanone], the IC50 with LoVo cells (setting [1]) lay within 100 to 1000 nM; on ATR kinase (setting [2]), 10 to 100 nM.
The matching figures for `C[C@@H]1COCCN1c1cc2c3c(n1)c(-c1cc[nH]n1)nn3CCN(S(C)(=O)=O)C2` [Compound 55, (R)-3-methyl-4-(7-(methylsulfonyl)-2-(1H-pyrazol-3-yl)-6,7,8,9-tetrahydro-1,3,7,9a-tetraazabenzo[cd]azulen-4-yl)morpholine]: 100 to 1000 nM and 10 to 100 nM.
As for `CC1NC(=O)Cn2nc(-c3cc[nH]n3)c3nc(N4CCOC[C@H]4C)cc1c32` (stereo partly drawn) [Compound 56, 6-methyl-4-((R)-3-methylmorpholinyl)-2-(1H-pyrazol-3-yl)-6,7-dihydro-1,3,7,9a-tetraazabenzo[cd]azulen-8(9H)-one], the figures for the IC50 with LoVo cells (setting [3]) and at ATR kinase (setting [4]) were more than 1000 nM and 10 to 100 nM, respectively.
Regarding `CC1c2cc(N3CCOC[C@H]3C)nc3c(-c4cc[nH]n4)nn(c23)CCN1C1COC1` (stereo partly drawn) [Compound 57, (3R)-3-methyl-4-(6-methyl-7-(oxetan-3-yl)-2-(1H-pyrazol-3-yl)-6,7,8,9-tetrahydro-1,3,7,9a-tetraazabenzo[cd]azulen-4-yl)morpholine], the results for the IC50 in the assay with LoVo cells (setting [1]) and on ATR kinase (setting [2]) were 100 to 1000 nM and 10 to 100 nM, respectively.
Take `CC1=NCCn2nc(-c3cc[nH]n3)c3nc(N4CCOC[C@H]4C)cc1c32` [Compound 58, (R)-3-methyl-4-(6-methyl-2-(1H-pyrazol-3-yl)-8,9-dihydro-1,3,7,9a-tetraazabenzo[cd]azulen-4-yl)morpholine]: the IC50 in the assay on LoVo cells (setting [1]) was 100 to 1000 nM; on ATR kinase (setting [2]) it was 10 to 100 nM.
For `C[C@@H]1COCCN1c1cc2c3c(n1)c(-c1cc[nH]n1)nn3CCN2C` [Compound 62, (R)-3-methyl-4-(5-methyl-1-(1H-pyrazol-3-yl)-4,5-dihydro-3H-2,2a,5,8-tetraazaacenaphthen-7-yl)morpholine], in that order: more than 1000 nM and 1000 to 2500 nM.
The matching figures for `CC(C)N1CCn2nc(-c3cc[nH]n3)c3nc(N4CCOC[C@H]4C)cc1c32` [Compound 63, (R)-4-(5-isopropyl-1-(1H-pyrazol-3-yl)-4,5-dihydro-3H-2,2a,5,8-tetraazaacenaphthen-7-yl)-3-methylmorpholine]: 100 to 1000 nM and 100 to 1000 nM.
For `C[C@@H]1COCCN1c1cc2c3c(nn(-c4cc[nH]n4)c3n1)CCC(=O)N2C1(C)CC1` [Compound 75, (R)-6-(1-methylcyclopropyl)-4-(3-methylmorpholino)-2-(1H-pyrazol-3-yl)-2,6,8,9-tetrahydro-7H-1,2,3,6-tetraazabenzo[cd]azulene-7-one], in that order: less than 100 nM and less than 10 nM.
As to `C[C@@H]1COCCN1c1cc2c3c(nn(-c4cc[nH]n4)c3n1)CCC(=O)N2CC1(C)CC1` [Compound 77, (R)-6-((1-methylcyclopropyl)methyl)-4-(3-methylmorpholino)-2-(1H-pyrazol-3-yl)-2,6,8,9-tetrahydro-7H-1,2,3,6-tetraazabenzo[cd]azulene-7-one], the IC50 is less than 100 nM in the assay with LoVo cells (setting [1]) and less than 10 nM on ATR kinase (setting [2]).
Take `CC(C)N1C(=O)CCc2nn(-c3cc[nH]n3)c3nc(N4CCOC[C@H]4C)cc1c23` [Compound 78, (R)-6-isopropyl-4-(3-methylmorpholino)-2-(1H-pyrazol-3-yl)-2,6,8,9-tetrahydro-7H-1,2,3,6-tetraazabenzo[cd]azulene-7-one]: the IC50 is less than 100 nM in the assay with LoVo cells (setting [3]) and less than 10 nM at ATR kinase (setting [2]).
In the case of `C[C@@H]1COCCN1c1cc2c3c(nn(-c4cc[nH]n4)c3n1)CCC(=O)N2C1CC(F)(F)C1` [Compound 79, (R)-6-(3,3-difluorocyclobutyl)-4-(3-methylmorpholinyl)-2-(1H-pyrazol-3-yl)-2,6,8,9-tetrahydro-7H-1,2,3,6-tetraazabenzo[cd]azulene-7-one], the results for the IC50 in the assay on LoVo cells (setting [3]) and on ATR kinase (setting [4]) were 100 to 1000 nM and less than 10 nM, respectively.
For the molecule `CC(C)N1C(=O)CCn2nc(-c3cc[nH]n3)c3nc(N4CCOC[C@H]4C)cc1c32` [Compound 81, (R)-6-isopropyl-4-(3-methylmorpholinyl)-2-(1H-pyrazol-3-yl)-8,9-dihydro-1,3,6,9a-tetraazabenzo[cd]azulene-7(6H)-one], the figures for the IC50 with LoVo cells (setting [3]) and at ATR kinase (setting [4]) were less than 100 nM and less than 10 nM, respectively.
As for `C[C@@H]1COCCN1c1cc2c3c(n1)c(-c1cc[nH]n1)nn3CCC(=O)N2C1CC1` [Compound 82, (R)-6-cyclopropyl-4-(3-methylmorpholino)-2-(1H-pyrazol-3-yl)-8,9-dihydro-1,3,6,9a-tetraazabenzo[cd]azulene-7(6H)-one], the IC50 in the assay on LoVo cells (setting [1]) is less than 100 nM; at ATR kinase (setting [2]) it was less than 10 nM.
The matching figures for `C[C@@H]1COCCN1c1cc2c3c(n1)c(-c1cc[nH]n1)nn3CCC(=O)N2CC1CC1` [Compound 83, (R)-6-(cyclopropylmethyl)-4-(3-methylmorpholino)-2-(1H-pyrazol-3-yl)-8,9-dihydro-1,3,6,9a-tetraazabenzo[cd]azulene-7(6H)-one]: less than 100 nM and 10 to 100 nM.
